Measurements from patent US9593149B2, “Amylin and calcitonin receptor agonist” (Novo Nordisk A/S, priority 2014, dated 2017).
Converted amounts (≈) assume the structure as drawn. Numbered stars: 1 amine (or outer) side, 2 acyl side, 3 side chain; on linkers, the order of the positions; unused ones are H or OH. Side chains are listed from the residue outwards. Peptide text beside a SMILES is read from it. * marks the point of attachment. C20 diacid = O=C(O)CCCCCCCCCCCCCCCCCCC(=O)*; γGlu = O=C(O)[C@H](CCC(=O)[*:2])N[*:1]; C14 diacid = O=C(O)CCCCCCCCCCCCC(=O)*

Key:
[1] = target: T1, rat calcitonin receptor (Rattus norvegicus, UniProt P32214); test: Assay (VIII) binding to the rat calcitonin receptor; settings: membranes; read-out: rCT-R binding IC50
T1 construct: expressed in transfected cells; host or cells: BHK tk'ts 13 (transient, FuGENE 6)
T1 sequence (P32214 25-479 isoform P32214-2 limits assumed): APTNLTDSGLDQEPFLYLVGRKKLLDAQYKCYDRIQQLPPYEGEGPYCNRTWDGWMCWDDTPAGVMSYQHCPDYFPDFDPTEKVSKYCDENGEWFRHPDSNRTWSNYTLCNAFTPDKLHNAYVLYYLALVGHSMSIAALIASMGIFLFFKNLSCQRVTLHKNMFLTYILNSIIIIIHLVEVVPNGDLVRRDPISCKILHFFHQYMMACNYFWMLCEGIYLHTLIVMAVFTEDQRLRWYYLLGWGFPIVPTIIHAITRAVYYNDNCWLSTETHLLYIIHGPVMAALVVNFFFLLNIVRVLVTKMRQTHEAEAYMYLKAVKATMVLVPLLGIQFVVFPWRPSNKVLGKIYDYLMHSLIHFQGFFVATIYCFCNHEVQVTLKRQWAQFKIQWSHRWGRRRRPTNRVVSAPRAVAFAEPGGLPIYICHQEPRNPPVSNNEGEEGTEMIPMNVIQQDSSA
Method: The morning after, the plates were washed three times in HBSS (4° C.), and lyzed in Lysis buffer (0.1 M NaOH), 1% SDS. Scintillation cocktail (MicroScint40®) was added and the plates were shaken at 500 rpm for a short period. The plate was incubated at room temperature in the dark for 1 hour and Read on a TopCounter™ (Packard). The IC50 was calculated using (one site binding competition analysis) GraphPad Prism5 as a measure of receptor affinity. Assay (VIII)—Determination of Binding to the Rat Calcitonin Receptor
The assay was performed as described above (Assay (VII)—Determination of binding to the human calcitonin receptor) with the exception that we used membranes prepared from BHK tk'ts 13 cells that were transiently transfected with the rat calcitonin receptor. The BHK tk'ts 13 cells were transiently transfected with rat calcitonin receptor using FuGENE® 6 (Roche), according to the manufacturer's recommendations. Cells were grown in DMEM with 10% FBS and 1% Pen/Strep.

[2] = Assay (IV) determination of solubility; format: physicochemical
Method: Assay (IV)—Determination of Solubility
The mimylin peptide was dissolved in water at ˜500 nmol/ml and mixed 1:1 with a series of buffers (100 mM glycylglycine pH 3.0, 100 mM glycylglycine pH 4.0, 100 mM glycylglycine pH 5.0, 100 mM bistrispropane pH 6.0, 100 mM bistrispropane pH 6.5, 100 mM bistrispropane pH 7.0, 100 mM bistrispropane pH 7.5, 100 mM bistrispropane pH 8.0).

IC50 [1] [pM]	Solubility ([2]; pH 3.0)	Solubility ([2]; pH 4.0)	Solubility ([2]; pH 5.0)	Solubility ([2]; pH 6.0)	Solubility ([2]; pH 6.5)	Solubility ([2]; pH 7.0)	Solubility ([2]; pH 7.5)	Solubility ([2]; pH 8.0)	solubility at 18 h ([2]; pH 5.0) [µM]	solubility at 18 h ([2]; pH 6.0) [µM]	solubility at 18 h ([2]; pH 6.5) [µM]	SMILES
39	≧200 μM	≧200 μM	≧200 μM	≧200 μM	≧200 μM	≧200 μM	≧200 μM	≧200 μM	–	–	–	CC(C)C[C@H](NC(=O)[C@H](C)NC(=O)[C@H](C)NC(=O)[C@@H](NC(=O)[C@H](CO)NC(=O)[C@H](CC(C)C)NC(=O)[C@H](CCC(=O)O)NC(=O)[C@H](CO)NC(=O)[C@H](C)NC(=O)CC[C@H](NC(=O)CCCCCCCCCCCCCCCCCCC(=O)O)C(=O)O)[C@@H](C)O)C(=O)NCC(=O)N[C@@H](CCCNC(=N)N)C(=O)N[C@@H](CC(C)C)C(=O)N[C@@H](CO)C(=O)N[C@@H](C)C(=O)N[C@@H](CCC(=O)O)C(=O)N[C@@H](CC(C)C)C(=O)N[C@@H](Cc1cnc[nH]1)C(=O)N[C@@H](CCC(=O)O)C(=O)N[C@@H](CC(C)C)C(=O)N[C@@H](C)C(=O)N[C@H](C(=O)N[C@@H](Cc1ccc(O)cc1)C(=O)N1CCC[C@H]1C(=O)N[C@@H](CCCNC(=N)N)C(=O)N[C@H](C(=O)N[C@@H](CCC(=O)O)C(=O)N[C@H](C(=O)NCC(=O)N[C@@H](CO)C(=O)NCC(=O)N[C@@H](C)C(=O)N1CCC[C@H]1C(N)=O)[C@@H](C)O)[C@@H](C)O)[C@@H](C)O [compound 81, [N-terminal(C20 diacid-gGlu), des1, 23Y, 30S, 31G, 32A]mimylin] ({C20 diacid-γGlu}-ASELSTAALGRLSAELHELATYPRTETGSGAP-NH2)
17	≧200 μM	≧200 μM	≧200 μM	≧200 μM	≧200 μM	≧200 μM	≧200 μM	≧200 μM	–	–	–	CC(C)C[C@H](NC(=O)[C@H](C)NC(=O)[C@H](C)NC(=O)[C@@H](NC(=O)[C@H](CO)NC(=O)[C@H](CC(C)C)NC(=O)[C@H](CCC(=O)O)NC(=O)[C@H](CO)NC(=O)[C@H](C)NC(=O)CC[C@H](NC(=O)CCCCCCCCCCCCC(=O)O)C(=O)O)[C@@H](C)O)C(=O)NCC(=O)N[C@@H](CCCNC(=N)N)C(=O)N[C@@H](CC(C)C)C(=O)N[C@@H](CO)C(=O)N[C@@H](C)C(=O)N[C@@H](CCC(=O)O)C(=O)N[C@@H](CC(C)C)C(=O)N[C@@H](Cc1cnc[nH]1)C(=O)N[C@@H](CCC(=O)O)C(=O)N[C@@H](CC(C)C)C(=O)N[C@@H](C)C(=O)N[C@H](C(=O)N[C@@H](CC(C)C)C(=O)N1CCC[C@H]1C(=O)N[C@@H](CCCNC(=N)N)C(=O)N[C@H](C(=O)N[C@@H](CCC(=O)O)C(=O)N[C@H](C(=O)NCC(=O)N[C@@H](CO)C(=O)NCC(=O)N[C@@H](CO)C(=O)N1CCC[C@H]1C(N)=O)[C@@H](C)O)[C@@H](C)O)[C@@H](C)O [compound 50, [N-terminal(C14 diacid-gGlu), des1, 30S, 31G]mimylin] ({C14 diacid-γGlu}-ASELSTAALGRLSAELHELATLPRTETGSGSP-NH2)
62	≧200 μM	–	–	–	–	≧200 μM	≧200 μM	≧200 μM	1 (≈ 3.82 µg/mL)	63 (≈ 241 µg/mL)	180 (≈ 688 µg/mL)	CC(C)C[C@H](NC(=O)[C@H](CO)NC(=O)[C@H](C)NC(=O)[C@@H](NC(=O)[C@H](CO)NC(=O)[C@H](CC(C)C)NC(=O)[C@H](CCC(=O)O)NC(=O)[C@H](CO)NC(=O)[C@H](C)NC(=O)CC[C@H](NC(=O)CCCCCCCCCCCCCCCCCCC(=O)O)C(=O)O)[C@@H](C)O)C(=O)NCC(=O)N[C@@H](CCCNC(=N)N)C(=O)N[C@@H](CC(C)C)C(=O)N[C@@H](CO)C(=O)N[C@@H](C)C(=O)N[C@@H](CCC(=O)O)C(=O)N[C@@H](CC(C)C)C(=O)N[C@@H](Cc1cnc[nH]1)C(=O)N[C@@H](CCC(=O)O)C(=O)N[C@@H](CC(C)C)C(=O)N[C@@H](CO)C(=O)N[C@H](C(=O)N[C@@H](Cc1ccc(O)cc1)C(=O)N1CCC[C@H]1C(=O)N[C@@H](CCCNC(=N)N)C(=O)N[C@H](C(=O)N[C@@H](CCC(=O)O)C(=O)N[C@H](C(=O)NCC(=O)N[C@@H](CO)C(=O)NCC(=O)N[C@@H](CO)C(=O)N[C@@H](Cc1ccc(O)cc1)C(N)=O)[C@@H](C)O)[C@@H](C)O)[C@@H](C)O [compound 100, [N-terminal(C20 diacid-gGlu), des1, 9S, 21S, 23Y, 30S, 31G, 33Y]mimylin] ({C20 diacid-γGlu}-ASELSTASLGRLSAELHELSTYPRTETGSGSY-NH2)
44	≧200 μM	≧200 μM	≧200 μM	≧200 μM	≧200 μM	≧200 μM	≧200 μM	≧200 μM	–	–	–	CC(C)C[C@H](NC(=O)[C@H](C)NC(=O)[C@H](C)NC(=O)[C@@H](NC(=O)[C@H](CO)NC(=O)[C@H](CC(C)C)NC(=O)[C@H](CCC(=O)O)NC(=O)[C@H](CO)NC(=O)[C@H](C)N)[C@@H](C)O)C(=O)NCC(=O)N[C@@H](CCCNC(=N)N)C(=O)N[C@@H](CC(C)C)C(=O)N[C@@H](CO)C(=O)N[C@@H](C)C(=O)N[C@@H](CCC(=O)O)C(=O)N[C@@H](CC(C)C)C(=O)N[C@@H](Cc1cnc[nH]1)C(=O)N[C@@H](CCCCNC(=O)CC[C@H](NC(=O)CCCCCCCCCCCCCCCCCCC(=O)O)C(=O)O)C(=O)N[C@@H](CC(C)C)C(=O)N[C@@H](C)C(=O)N[C@H](C(=O)N[C@@H](CC(C)C)C(=O)N1CCC[C@H]1C(=O)N[C@@H](CCCNC(=N)N)C(=O)N[C@H](C(=O)N[C@@H](CCC(=O)O)C(=O)N[C@H](C(=O)NCC(=O)N[C@@H](CO)C(=O)NCC(=O)N[C@@H](CO)C(=O)N1CCC[C@H]1C(N)=O)[C@@H](C)O)[C@@H](C)O)[C@@H](C)O [compound 54, [des1, 19K(C20 diacid-gGlu), 30S, 31G]mimylin] (H-ASELSTAALGRLSAELHK([γGlu-C20 diacid])LATLPRTETGSGSP-NH2)
71	≧200 μM	≧200 μM	≧200 μM	≧200 μM	≧200 μM	≧200 μM	≧200 μM	≧200 μM	–	–	–	CC(=O)N[C@@H](C)C(=O)N[C@@H](CO)C(=O)N[C@@H](CCC(=O)O)C(=O)N[C@@H](CC(C)C)C(=O)N[C@@H](CO)C(=O)N[C@H](C(=O)N[C@@H](C)C(=O)N[C@@H](C)C(=O)N[C@@H](CC(C)C)C(=O)NCC(=O)N[C@@H](CCCNC(=N)N)C(=O)N[C@@H](CC(C)C)C(=O)N[C@@H](CO)C(=O)N[C@@H](C)C(=O)N[C@@H](CCC(=O)O)C(=O)N[C@@H](CC(C)C)C(=O)N[C@@H](Cc1cnc[nH]1)C(=O)N[C@@H](CCCCNC(=O)CC[C@H](NC(=O)CCCCCCCCCCCCCCCCCCC(=O)O)C(=O)O)C(=O)N[C@@H](CC(C)C)C(=O)N[C@@H](C)C(=O)N[C@H](C(=O)N[C@@H](CC(C)C)C(=O)N1CCC[C@H]1C(=O)N[C@@H](CCCNC(=N)N)C(=O)N[C@H](C(=O)N[C@@H](CCC(=O)O)C(=O)N[C@H](C(=O)NCC(=O)N[C@@H](CO)C(=O)NCC(=O)N[C@@H](CO)C(=O)N1CCC[C@H]1C(N)=O)[C@@H](C)O)[C@@H](C)O)[C@@H](C)O)[C@@H](C)O [compound 70, [N-terminal(acetyl), des1, 19K(C20 diacid-gGlu), 30S, 31G]mimylin] (Ac-ASELSTAALGRLSAELHK([γGlu-C20 diacid])LATLPRTETGSGSP-NH2)
